Results: ChEMBL document CHEMBL1149426 (Bioorg Med Chem Lett, 2006)

Legend:
D(3) dopamine receptor = D(3) dopamine receptor (Homo sapiens, UniProt P35462); test: Binding affinity to human cloned dopamine D3 receptor
D(2) dopamine receptor = D(2) dopamine receptor (Homo sapiens, UniProt P14416); test: Binding affinity to human cloned dopamine D2 receptor
[1] = Inhibitory activity against GABA receptor
Canis familiaris = species: Canis familiaris; test: Metabolic stability in dog liver microsomes; type: ADME, Canis lupus familiaris
Adenosine receptor = Adenosine receptor (Homo sapiens, UniProt P30542+P29275+P0DMS8+P29274); test: Inhibitory activity against adenosine receptor; type: protein assay
Rattus norvegicus = test: Ability to restitute huddling in rat at 2.15 mg/kg, po; type: functional
Cholecystokinin receptor = target: T1, Cholecystokinin receptor (Homo sapiens, UniProt P32239+P32238); test: Inhibitory activity against cholecystokinin receptor; type: protein assay
T1 sequence (P32239 whole entry): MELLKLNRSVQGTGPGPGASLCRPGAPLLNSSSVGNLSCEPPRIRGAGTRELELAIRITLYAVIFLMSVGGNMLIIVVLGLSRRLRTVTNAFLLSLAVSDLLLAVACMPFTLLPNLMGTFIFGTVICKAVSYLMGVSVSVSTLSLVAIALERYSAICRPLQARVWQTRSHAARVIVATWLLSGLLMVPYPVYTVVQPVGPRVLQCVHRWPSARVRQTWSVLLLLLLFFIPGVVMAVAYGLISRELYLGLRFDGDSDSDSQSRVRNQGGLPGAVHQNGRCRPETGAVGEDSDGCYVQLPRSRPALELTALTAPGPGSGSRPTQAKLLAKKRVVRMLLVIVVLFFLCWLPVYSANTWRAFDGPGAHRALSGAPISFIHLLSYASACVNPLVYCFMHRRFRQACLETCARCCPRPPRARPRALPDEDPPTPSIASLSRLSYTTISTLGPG
T1 sequence (P32238 whole entry): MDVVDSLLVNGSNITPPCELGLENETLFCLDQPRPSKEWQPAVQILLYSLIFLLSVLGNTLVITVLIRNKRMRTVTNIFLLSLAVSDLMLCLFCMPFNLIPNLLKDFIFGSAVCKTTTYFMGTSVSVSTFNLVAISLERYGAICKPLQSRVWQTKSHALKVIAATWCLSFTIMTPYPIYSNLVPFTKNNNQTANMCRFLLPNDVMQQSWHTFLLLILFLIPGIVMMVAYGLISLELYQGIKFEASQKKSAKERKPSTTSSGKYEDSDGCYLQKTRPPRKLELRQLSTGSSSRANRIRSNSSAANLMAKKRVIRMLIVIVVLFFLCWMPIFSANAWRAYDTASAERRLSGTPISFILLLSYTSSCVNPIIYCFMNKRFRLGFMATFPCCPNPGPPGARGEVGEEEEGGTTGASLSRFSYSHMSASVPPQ

[2] = target: Opioid receptors; mu/kappa/delta (Homo sapiens, UniProt P41145+P41143+P35372); test: Inhibitory activity against opioid receptor; type: protein assay
[3] = target: Muscarinic acetylcholine receptor; test: Inhibitory activity against muscarinic receptor; type: protein assay
[4] = Inhibitory activity against adrenergic receptor
Liver microsomes [5] = test: Metabolic stability in rat liver microsomes; type: ADME, Microsome
D(1B) dopamine receptor = D(1B) dopamine receptor (Homo sapiens, UniProt P21918); test: Inhibitory activity against dopamine D5 receptor
Chain of D(1B) dopamine receptor (P21918 whole entry): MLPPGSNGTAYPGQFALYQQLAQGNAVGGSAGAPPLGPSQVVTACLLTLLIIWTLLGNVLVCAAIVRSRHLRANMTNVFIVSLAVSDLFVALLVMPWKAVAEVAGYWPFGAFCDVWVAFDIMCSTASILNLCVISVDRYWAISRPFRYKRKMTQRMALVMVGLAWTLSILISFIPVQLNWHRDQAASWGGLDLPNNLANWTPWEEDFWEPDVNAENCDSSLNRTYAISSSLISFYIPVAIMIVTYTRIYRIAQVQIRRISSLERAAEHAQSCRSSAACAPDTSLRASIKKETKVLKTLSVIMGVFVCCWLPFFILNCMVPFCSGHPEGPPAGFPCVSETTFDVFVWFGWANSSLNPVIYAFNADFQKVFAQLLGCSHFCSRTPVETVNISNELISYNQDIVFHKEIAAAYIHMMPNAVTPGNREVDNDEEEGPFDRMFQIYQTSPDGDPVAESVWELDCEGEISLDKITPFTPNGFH

D(1A) dopamine receptor = D(1A) dopamine receptor (Homo sapiens, UniProt P21728); test: Inhibitory activity against dopamine D1 receptor
Chain of D(1A) dopamine receptor (P21728 whole entry): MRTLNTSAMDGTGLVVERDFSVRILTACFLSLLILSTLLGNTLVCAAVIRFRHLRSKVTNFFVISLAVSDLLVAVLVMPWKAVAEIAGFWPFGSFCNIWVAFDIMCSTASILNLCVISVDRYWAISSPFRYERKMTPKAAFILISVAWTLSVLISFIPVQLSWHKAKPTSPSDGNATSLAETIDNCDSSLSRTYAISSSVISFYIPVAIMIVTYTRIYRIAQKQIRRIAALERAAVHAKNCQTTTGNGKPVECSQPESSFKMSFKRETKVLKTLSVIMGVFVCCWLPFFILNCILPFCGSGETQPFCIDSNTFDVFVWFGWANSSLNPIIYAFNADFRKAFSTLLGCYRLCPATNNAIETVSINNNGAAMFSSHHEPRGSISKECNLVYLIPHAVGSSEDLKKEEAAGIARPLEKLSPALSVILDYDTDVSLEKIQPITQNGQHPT

[6] = Inhibitory activity against 5HT receptor
[7] = Inhibitory activity against neurotransmitter transporter
[8] = Permeability across Caco-2 cell membrane; type: ADME, cell-based; details: human
[9] = target: GABA-A receptor; anion channel; test: Inhibitory activity against central benzodiazepine receptor; type: protein-complex assay
Liver microsomes [10] = test: Metabolic stability in human liver microsomes; type: ADME, Microsome

Chain of D(2) dopamine receptor (P14416 whole entry): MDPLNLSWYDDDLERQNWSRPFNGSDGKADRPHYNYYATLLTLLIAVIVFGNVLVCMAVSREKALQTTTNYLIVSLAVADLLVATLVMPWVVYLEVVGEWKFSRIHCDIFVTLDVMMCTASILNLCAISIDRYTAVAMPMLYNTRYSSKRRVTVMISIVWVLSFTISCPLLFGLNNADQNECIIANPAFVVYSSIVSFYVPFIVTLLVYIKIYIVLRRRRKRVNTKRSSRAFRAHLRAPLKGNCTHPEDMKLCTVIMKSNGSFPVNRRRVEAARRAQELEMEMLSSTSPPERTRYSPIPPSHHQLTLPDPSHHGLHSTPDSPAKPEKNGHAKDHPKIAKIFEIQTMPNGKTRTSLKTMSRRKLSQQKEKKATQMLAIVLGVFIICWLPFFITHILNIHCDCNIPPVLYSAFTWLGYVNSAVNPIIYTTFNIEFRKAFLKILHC
Chain of D(3) dopamine receptor (P35462 whole entry): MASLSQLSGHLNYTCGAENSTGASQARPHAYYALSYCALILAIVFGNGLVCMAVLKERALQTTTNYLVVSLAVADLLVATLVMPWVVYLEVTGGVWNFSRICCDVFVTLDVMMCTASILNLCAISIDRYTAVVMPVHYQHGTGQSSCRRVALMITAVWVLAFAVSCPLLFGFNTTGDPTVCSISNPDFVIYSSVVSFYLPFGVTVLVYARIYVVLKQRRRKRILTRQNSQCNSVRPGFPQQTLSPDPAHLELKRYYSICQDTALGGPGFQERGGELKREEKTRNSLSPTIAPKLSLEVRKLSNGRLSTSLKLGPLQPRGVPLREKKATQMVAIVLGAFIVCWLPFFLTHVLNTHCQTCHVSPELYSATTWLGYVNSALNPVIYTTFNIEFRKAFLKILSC

SMILES | Ki (D(3) dopamine receptor) | Ki (D(2) dopamine receptor) | also measured
CC(C)(C)c1nc(N2CCN(CCCCN3CCC(=O)CCC3=O)CC2)cc(C(F)(F)F)n1 | 3.9 nM | 65 nM | –
CC(C)(C)c1nc(N2CCN(C/C=C/CN3C(=O)CCc4ccccc43)CC2)cc(C(F)(F)F)n1 | – | 254 nM | –
C/C(=C\CN1CCN(c2cc(C(F)(F)F)nc(C(C)(C)C)n2)CC1)CN1C(=O)CCc2ccccc21 | 58.9 nM | 669 nM | –
C[C@@H](CCCN1C(=O)CCc2ccccc21)N1CCN(c2cc(C(F)(F)F)nc(C(C)(C)C)n2)CC1 | 22.4 nM | 289 nM | –
CC(C)(C)c1nc(N2CCN(CCCCN3Cc4ccccc4CC3=O)CC2)cc(C(F)(F)F)n1 | 293 nM | – | –
C[C@H](CCN1CCN(c2cc(C(F)(F)F)nc(C(C)(C)C)n2)CC1)CN1C(=O)CCc2ccccc21 | 64.9 nM | 261 nM | –
CC(C)(C)c1nc(N2CCN(CCCCN3C(=O)CCc4ccccc43)CC2)cc(C(F)(F)F)n1 | 3.4 nM | 126 nM | –
CC(C)(C)c1nc(N2CCN(CCCCn3c(=O)ccc4ccccc43)CC2)cc(C(F)(F)F)n1 | 11.2 nM | 151 nM | –

Second part, led by results:

Ki (D(3) dopamine receptor) | Ki (D(2) dopamine receptor) | SMILES | also measured
– | 93 nM | CC(C)(C)c1nc(N2CCN(CCCCN3C(=O)CCCc4c(O)cccc43)CC2)cc(C(F)(F)F)n1 | –
4050 nM | – | CC(C)(C)c1nc(N2CCN(CCCCCN3C(=O)CCc4ccccc43)CC2)cc(C(F)(F)F)n1 | –
12.1 nM | 354 nM | CC(C)(C)c1nc(N2CCN(CCCCN3C(=O)COc4ccccc43)CC2)cc(C(F)(F)F)n1 | –
10.1 nM | 243 nM | COc1cccc2c1CCCC(=O)N2CCCCN1CCN(c2cc(C(F)(F)F)nc(C(C)(C)C)n2)CC1 | –
16.8 nM | 118 nM | CC(C)(C)c1nc(N2CCN(CCCCN3C(=O)CCCc4ccccc43)CC2)cc(C(F)(F)F)n1 | –
9.6 nM | 83 nM | CC(C)(C)c1nc(N2CCN(CCCCN3C(=O)CCSc4ccccc43)CC2)cc(C(F)(F)F)n1 | –
39.6 nM | 142 nM | CC(C)(C)c1nc(N2CCN(CCCCN3C(=O)CC(=O)c4ccccc43)CC2)cc(C(F)(F)F)n1 | –
93.8 nM | – | CC(C)(C)c1nc(N2CCN(CCCN3C(=O)CCc4ccccc43)CC2)cc(C(F)(F)F)n1 | –
– | 467 nM | COc1cc2c(cc1OC)N(CCCCN1CCN(c3cc(C(F)(F)F)nc(C(C)(C)C)n3)CC1)C(=O)CCC2=O | –
– | 246 nM | CC(C)(C)c1nc(N2CCN(CCCCN3C(=O)CCC(=O)c4ccccc43)CC2)cc(C(F)(F)F)n1 | IC50 [1]: > 10000 nM; Stability (Canis familiaris): > 97%; IC50 (Adenosine receptor): > 10000 nM; Activity (Rattus norvegicus): 37%; IC50 (Cholecystokinin receptor): > 10000 nM; IC50 [2]: > 10000 nM; IC50 [3]: > 10000 nM; IC50 [4]: > 10000 nM; Stability (Liver microsomes [5]): > 97%; IC50 (D(1B) dopamine receptor): > 10000 nM; IC50 (D(1A) dopamine receptor): > 10000 nM; IC50 [6]: > 10000 nM; IC50 [7]: > 10000 nM; Papp [8]: 0.33 ×10⁻⁶ cm/s; IC50 [9]: > 10000 nM; Stability (Liver microsomes [10]): > 97%
